# Results published in patent US9845330B2, “6-nitro-2,3-dihydroimidazo[2,1-b]oxazoles and a process for the preparation thereof” (priority 2013, dated 2017).
# Where two headings read alike, the source gives them in different places.
# Experiments:
# [1] = tested on: macrophage J774 cells line; test: Cytotoxicity assay (MTT) in macrophage J774 cells; format: cell-based; details: J774 cells, 24 hrs, MTT
# How it was run: (§1)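 J774 cells seeded at 3×10^4 cells/cm^2 in RPMI with FCS reduced to 5%, then exposed to compounds at 40 μg/ml for 24 hrs. MTT reduction read at 450 nm; percentage cytotoxicity calculated relative to untreated cells.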
# [2] = Cytotoxicity assay (MTT) in macrophage J774 cells; format: cell-based; details: mouse, J774 macrophage cells; also called safety index
# How it was run: as §1
# M. tuberculosis H37Rv = test: Combination studies, checkerboard method; format: cell-based, Mycobacterium tuberculosis; details: for FIC (MIC combination/MIC alone): FIC B
# Procedure: The efficacy of compounds IA25 and IIA3 (conc range 4 μg/ml to 0.007 μg/ml) in combination with currently used anti-TB drugs such as rifampicin, isoniazid and ethambutol (each drug tested at conc range 4 μg/ml to […]), wherein the ratio of drugs was ranging between 0.1% to 50%, was determined in vitro using checkerboard method. The checkerboard procedure was performed based on the MIC values by the broth microdilution method. The checkerboard method was performed in 96 well U bottom microtitre plates. 100 microliters of 4× concentration of drug was added to first column of the plate. 50 microliters from first column was transferred to second column and was serially diluted in horizontal manner upto column 10 of the plate. Seven dilutions of 4× concentration of compound were prepared in eppendorfs and fifty microliters of each concentration was added vertically starting from eleventh column of row eight to row second of the plate. First row of the plate served as drug control. 100 microliters of 1:10 diluted of 1 Mc Farland inoculum was added to each well of the plate. Plates were then incubated at 37° C. for 14 days. MIC of drug alone and in presence of compound and vice versa was observed visually. […] The FIC index value for each concentration of two-drug combination was calculated and the minimum value was adopted.
# [3] = tested on: M. tuberculosis H37Rv (ATCC 27294); test: MIC by broth dilution method, M. tuberculosis H37Rv; format: cell-based; details: Mycobacterium tuberculosis
# [4] = In vivo pharmacokinetics, oral, mice; parameters: species or system Balb/c mice; Ka: unit not given here; details: 5 mg/kg oral, plasma; for Tmax: read-out: Tmax
# Procedure: Compounds were administered orally to mice (Balb/c mice) at a dose of 5 mg/kg as a suspension in 0.5% CMC and Tween 80. Samples were derived from plasma at different time points i.e. 0.16 h, 0.5 h, 1 h, 2 h, 4 h, 6 h, 8 h and 24 h, which were then analysed by LC-MS/MS to generate the required pharmacokinetic parameters.
# [5] = 504 h, read-out: MIC M. tb H37Rv, broth dilution, 3 weeks
# [6] = read-out: MIC value, text summary: sensitive H37Rv as well as MDR and XDR strains of M. tuberculosis
Structure (SMILES),Cytotoxicity [1] [µg/mL],"selectivity ratio at 24 h, 40 μg/ml [2]",CLB [4] [mL/min/kg],Ka [4],Vdarea [4] [L/kg],t1/2absorption [4] [h],"Cmax ([4]; Balb/c, mouse, po, 5 mg/kg) [nM]","AUC ([4]; Balb/c, mouse) [µM·h]","Tmax ([4]; Balb/c, mouse) [h]","MIC [3, 5] [µg/mL]","MIC [3, 6] [µg/mL]",further results
C[C@]1(COc2ccc(-n3cc(COc4ccc(OC(F)(F)F)cc4)nn3)cc2)Cn2cc([N+](=O)[O-])nc2O1 [IA25],>40,> 10,0.12,1.71,0.36,0.41,1020,14,2,,,"FIC (MIC combination/MIC alone) (M. tuberculosis H37Rv; compound in combination with Ethambutol): FIC B = 0.5; FIC (MIC combination/MIC alone) (M. tuberculosis H37Rv; compound in combination with INH): FIC B = 0.25; FIC (MIC combination/MIC alone) (M. tuberculosis H37Rv; compound in combination with Rifampicin): FIC B = 0.5; MIC alone (M. tuberculosis H37Rv; checkerboard, alone): 0.12 µg/mL; MIC with Ethambutol (M. tuberculosis H37Rv; checkerboard, in combination with Ethambutol): 0.06 µg/mL; MIC with INH (M. tuberculosis H37Rv; checkerboard, in combination with INH): 0.03 µg/mL; MIC with Rifampicin (M. tuberculosis H37Rv; checkerboard, in combination with Rifampicin): 0.06 µg/mL; FIC Index (FIC A + FIC B) (M. tuberculosis H37Rv; combination with Ethambutol): 0.75; FIC Index (FIC A + FIC B) (M. tuberculosis H37Rv; combination with INH): 0.5; Observations (M. tuberculosis H37Rv; combination with INH (isoniazid)): synergistic effect; FIC Index (FIC A + FIC B) (M. tuberculosis H37Rv; combination with Rifampicin): 0.75; MIC ([3]; 504 h, broth dilution, 3 weeks, read-out: MIC M. tb H37Rv): 0.12 µg/mL; Cmax [4]: 1020 nM"
"C[C@]1(COc2ccc(-c3cc(COc4ccc(OC(F)(F)F)cc4)on3)cc2)Cn2cc([N+](=O)[O-])nc2O1 [IC13, (R)-2-{4-[5-(4-trifluoromethoxyphenoxymethyl)isoxazol-3-yl]phenoxymethyl}-2,3-dihydro-2-methyl-6-nitroimidazo[2,1-b]oxazole]",>40,> 10,0.055,1.21,0.13,0.57,2530,33.7,2,0.12,< 1,
"C[C@]1(COc2ccc(-c3cc(COc4ccc(F)cc4)on3)cc2)Cn2cc([N+](=O)[O-])nc2O1 [IC14, (R)-2-{4-[5-(4-fluorophenoxymethyl)isoxazol-3-yl]phenoxymethyl}-2,3-dihydro-2-methyl-6-nitroimidazo[2,1-b]oxazole]",>40,> 10,3.37,1.056,1.54,0.656,353,1.55,2,0.06,< 1,
